Where only a bound is given, the exact number is not on record here.

The IC50 is the concentration that inhibits the measured activity by half.

The test system of the first assay is Human primary T cells. Nature of the assay: IL-2 ELISA, human primary T cell, anti-CD3+CD28+ (whole cell assay). The class given is cell-based. The settings on record: Homo sapiens, T-cell, 24 h, human primary T cells stimulated with anti-CD3 + anti-CD28, 24 hours. In a few lines: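 PBMC-derived T cells, pre-expanded on αCD3/αCD28 with IL-2 and then washed free of IL-2, were preincubated with compound for 1 hr at 37° C (100,000 cells/well). They were then stimulated on 1 μg/ml αCD3 plus 5 μg/ml αCD28 for 24 h, and supernatant IL-2 was measured by ELISA. The counter-assay used 0.5 ng/ml PMA plus 0.1 μM ionomycin instead.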
Turning to `CN1C(C)(C)CC(Nc2nc(Nc3ccc(OC4CCOCC4)c(OC(F)F)c3)ncc2F)CC1(C)C` [III-22, N2-(3-(difluoromethoxy)-4-(tetrahydro-2H-pyran-4-yloxy)phenyl)-5-fluoro-N4-(1,2,2,6,6-pentamethylpiperidin-4-yl)pyrimidine-2,4-diamine], the IC50 was less than 250 nM.

As to `CC(C)Oc1ncc(Nc2ncc(C#N)c(NC3CC(C)(C)N(C)C(C)(C)C3)n2)cc1-c1nnnn1C(C)C` [Compound I-135, 2-(6-isopropoxy-5-(1-isopropyl-1H-tetrazol-5-yl)pyridin-3-ylamino)-4-(1,2,2,6,6-pentamethylpiperidin-4-ylamino)pyrimidine-5-carbonitrile], the IC50 was in the range of 500 to 1000 nM.

For the molecule `CC(=O)N1C(C)(C)CC(Nc2nc(Nc3ccc(OC4CCN(C(C)C)CC4)c(OC(F)F)c3)ncc2F)CC1(C)C` [III-4, 1-(4-(2-(3-(Difluoromethoxy)-4-(1-isopropylpiperidin-4-yloxy)phenylamino)-5-fluoropyrimidin-4-ylamino)-2,2,6,6-tetramethylpiperidin-1-yl)ethanone], the IC50 was more than 1000 nM.

As for `Cc1nnnn1-c1cc(Nc2ncc(F)c(NC3CC(C)(C)NC(C)(C)C3)n2)ccc1OC1CCN(C(C)C)CC1` [III-2, 5-fluoro-N2-(4-(1-isopropylpiperidin-4-yloxy)-3-(5-methyl-1H-tetrazol-1-yl)phenyl)-N4-(2,2,6,6-tetramethylpiperidin-4-yl)pyrimidine-2,4-diamine], the IC50 was more than 1000 nM.

`CN1C(C)(C)CC(Nc2nc(Nc3ccc(O[C@H]4CCOC4)c(OC(F)F)c3)ncc2F)CC1(C)C` [III-99, (S)—N2-(3-(difluoromethoxy)-4-(tetrahydrofuran-3-yloxy)phenyl)-5-fluoro-N4-(1,2,2,6,6-pentamethylpiperidin-4-yl)pyrimidine-2,4-diamine]: the IC50 is less than 250 nM.

In the case of `CN1C(C)(C)CC(Nc2nc(Nc3ccc(OCCn4ccnn4)c(OC(F)F)c3)ncc2C#N)CC1(C)C` [Compound I-55, 4-(1,2,2,6,6-pentamethylpiperidin-4-ylamino)-2-(4-(2-(1H-1,2,3-triazol-1-yl)ethoxy)-3-(difluoromethoxy)phenylamino)pyrimidine-5-carbonitrile], the IC50 is 250 to 500 nM.

`CC(C)Oc1ncc(Nc2ncc(F)c(NC3CC(C)(C)NC(C)(C)C3)n2)cc1-c1nnnn1C1CC1` [Compound I-138, N2-(5-(1-cyclopropyl-1H-tetrazol-5-yl)-6-isopropoxypyridin-3-yl)-5-fluoro-N4-(2,2,6,6-tetramethylpiperidin-4-yl)pyrimidine-2,4-diamine]: the IC50 was 500 to 1000 nM.

In the case of `CC1(C)CC(Nc2nc(Nc3cc(F)cc(OCCN4CCCC4=O)c3)ncc2F)CC(C)(C)N1` [Compound I-37, 1-(2-(3-(4-(2,2,6,6-tetramethylpiperidin-4-ylamino)-5-fluoropyrimidin-2-ylamino)-5-fluorophenoxy)ethyl)pyrrolidin-2-one], the IC50 is more than 1000 nM.

For `CC(C)Oc1ncc(Nc2ncc(F)c(NC3CC(C)(C)NC(C)(C)C3)n2)cc1-c1nnnn1C` [Compound I-127, 5-fluoro-N2-(6-isopropoxy-5-(1-methyl-1H-tetrazol-5-yl)pyridin-3-yl)-N4-(2,2,6,6-tetramethylpiperidin-4-yl)pyrimidine-2,4-diamine], the concentration for half-maximal inhibition (IC50) lay in the range of 250 to 500 nM.

Consider `CN1C(C)(C)CC(Nc2nc(Nc3ccc(OC4CCN(S(C)(=O)=O)CC4)c(OC(F)F)c3)ncc2F)CC1(C)C` [III-20, N2-(3-(difluoromethoxy)-4-(1-(methylsulfonyl)piperidin-4-yloxy)phenyl)-5-fluoro-N4-(1,2,2,6,6-pentamethylpiperidin-4-yl)pyrimidine-2,4-diamine], for which the IC50 was in the range of 250 to 500 nM.

Turning to `CN1C(C)(C)CC(Nc2nc(Nc3ccc(OC4CCS(=O)(=O)CC4)c(F)c3)ncc2F)CC1(C)C` [III-29, N2-[4-(1,1-Dioxo-hexahydro-1λ6-thiopyran-4-yloxy)-3-fluoro-phenyl]-5-fluoro-N4-(1,2,2,6,6-pentamethyl-piperidin-4-yl)-pyrimidine-2,4-diamine], the IC50 is more than 1000 nM.

On to `CN1C(C)(C)CC(Nc2nc(Nc3cc(F)cc(OCCCn4cccc4)c3)ncc2F)CC1(C)C` [Compound I-36, N2-(3-(3-(1H-pyrrol-1-yl)propoxy)-5-fluorophenyl)-5-fluoro-N4-(1,2,2,6,6-pentamethylpiperidin-4-yl)pyrimidine-2,4-diamine], for which the half-inhibitory concentration (IC50) lay within 500 to 1000 nM.

For `CN1C(C)(C)CC(Nc2nc(Nc3ccc(Oc4ccncc4)c(C(F)(F)F)c3)ncc2F)CC1(C)C` [Compound I-62, 5-fluoro-N2-(3-(trifluoromethyl)-4-(pyridin-4-yloxy)phenyl)-N4-(1,2,2,6,6-pentamethylpiperidin-4-yl)pyrimidine-2,4-diamine], the IC50 was more than 1000 nM.

Regarding `CC1(C)CC(Nc2nc(Nc3ccc(OC4CCN(S(C)(=O)=O)CC4)c(F)c3)ncc2F)CC(C)(C)N1` [III-15, 5-fluoro-N2-(3-fluoro-4-(1-(methylsulfonyl)piperidin-4-yloxy)phenyl)-N4-(2,2,6,6-tetramethylpiperidin-4-yl)pyrimidine-2,4-diamine], the half-inhibitory concentration (IC50) is more than 1000 nM.

With `Cc1ccc(Nc2ncc(F)c(NC3CC(C)(C)N(C)C(C)(C)C3)n2)cc1-c1nnnn1C` [III-64, 5-fluoro-N2-(4-methyl-3-(1-methyl-1H-tetrazol-5-yl)phenyl)-N4-(1,2,2,6,6-pentamethylpiperidin-4-yl)pyrimidine-2,4-diamine], the IC50 is less than 250 nM.

As for `CC1(C)CC(Nc2nc(Nc3cc(F)c(OC4CCN(CCOCc5ccccc5)CC4)c(F)c3)ncc2F)CC(C)(C)N1` [III-55, N2-(4-(1-(2-(benzyloxy)ethyl)piperidin-4-yloxy)-3,5-difluorophenyl)-5-fluoro-N4-(2,2,6,6-tetramethylpiperidin-4-yl)pyrimidine-2,4-diamine], the IC50 was in the range of 500 to 1000 nM.

For `Cc1nnnn1-c1cc(Nc2ncc(F)c(NC3CC(C)(C)NC(C)(C)C3)n2)ccc1F` [Compound I-10, 5-fluoro-N2-(4-fluoro-3-(5-methyl-1H-tetrazol-1-yl)phenyl)-N4-(2,2,6,6-tetramethylpiperidin-4-yl)pyrimidine-2,4-diamine], the 50% inhibitory concentration (IC50) lay in the range of 250 to 500 nM.

Turning to `CC(C)N1CCC(Oc2ccc(Nc3ncc(F)c(NC4CC(C)(C)N(C)C(C)(C)C4)n3)cc2F)CC1` [III-18, 5-fluoro-N2-(3-fluoro-4-(1-isopropylpiperidin-4-yloxy)phenyl)-N4-(1,2,2,6,6-pentamethylpiperidin-4-yl)pyrimidine-2,4-diamine], the half-inhibitory concentration (IC50) was less than 250 nM.

For `CC1(C)CC(Nc2nc(Nc3cc(F)c(OC4CCN(S(C)(=O)=O)CC4)c(F)c3)ncc2F)CC(C)(C)N1` [III-84, N2-(3,5-difluoro-4-(1-(methylsulfonyl)piperidin-4-yloxy)phenyl)-5-fluoro-N4-(2,2,6,6-tetramethylpiperidin-4-yl)pyrimidine-2,4-diamine], the IC50 is more than 1000 nM.

For `CC1(C)CC(Nc2nc(Nc3ccc(OCCN4CCCC4)c(OC(F)F)c3)ncc2F)CC(C)(C)N1` [Compound I-60, N2-(4-(2-(pyrrolidin-1-yl)ethoxy)-3-(difluoromethoxy)phenyl)-5-fluoro-N4-(2,2,6,6-tetramethylpiperidin-4-yl)pyrimidine-2,4-diamine], the IC50 is 500 to 1000 nM.

The assay is the same for the next values; noted with them: human primary T cells stimulated with anti-CD3 + anti-CD28, 24 hours.
For `CCCc1nnnn1-c1cc(Nc2ncc(C(N)=O)c(NC3CC(C)(C)N(C)C(C)(C)C3)n2)ccc1OC` [Compound I-75, 5-aminocarbonyl-N2-[4-methoxy-3-(5-propyl-1H-tetrazol-1-yl)]phenyl-N4-(1,2,2,6,6-pentamethylpiperidin-4-yl)-2,4-pyrimidinediamine], the IC50 was in the range of 500 to 1000 nM.

These data come from patent US9149475B2, “Protein kinase C inhibitors and uses thereof” (Rigel Pharmaceuticals, Inc., priority 2009, dated 2015).
